Source: US9394299B2, “Rilyazine derivatives and compositions for the treatment of cancer” (Warner Babcock Institute for Green Chemistry, LLC, priority 2013, dated 2016)

Assays:
SK-MEL-28 (Melanoma) = test: NCI single point 10 μM, SK-MEL-28; format: cell-based, human; settings: 10^−5 M
Procedure: (§1) The screening is a two-stage process, beginning with the evaluation of all compounds against 60 cell lines at a single dose of 10^−5 M.
(§2) The human tumor cell lines of the cancer screening panel are grown in RPMI 1640 medium containing 5% fetal bovine serum and 2 mM L-glutamine. Cells are inoculated into 96 well microtiter plates in 100 μL at plating densities ranging from 5,000 to 40,000 cells/well depending on the doubling time of individual cell lines. After cell inoculation, the microtiter plates are incubated at 37° C., 5% CO2, 95% air and 100% relative humidity for 24 h prior to addition of experimental drugs. […]
(§3) Following drug addition, the plates are incubated for an additional 48 h at 37° C., 5% CO2, 95% air, and 100% relative humidity. […] Bound stain is subsequently solubilized with 10 mM trizma base, and the absorbance is read on an automated plate reader at a wavelength of 515 nm. […]
(§4) For the 1-dose 60 cell testing, the Growth Percent is calculated for each cell line/drug combination from the absorbance measurement for the no-drug control (C), the absorbance at time zero (Tz) and the absorbance measurement after incubation of the cells in the presence of drug (Ti): Growth Percent=[(Ti−Tz)/(C−Tz)]×100 for cell line/drug combinations for which Ti≧Tz. […]

SN12C (Renal Cancer) = test: NCI single point 10 μM, SN12C; format: cell-based, human; settings: 10^−5 M
Procedure: as §1, §2, §3, §4

MALME-3M (Melanoma) = test: NCI single point 10 μM, MALME-3M; format: cell-based, human; settings: 10^−5 M
Procedure: as §1, §2, §3, §4

TK-10 (Renal Cancer) = test: NCI single point 10 μM, TK-10; format: cell-based, human; settings: 10^−5 M
Procedure: as §1, §2, §3, §4

MCF7 (Breast Cancer) = test: NCI five point dosing, MCF7; format: cell-based; settings: Homo sapiens
Procedure: RL-4 was evaluated against the 60 cell panel at five concentration levels, 10^−8 M, 10^−7 M, 10^−6 M, 10^−5 M and 10^−4 M.
as §2, §3
The percentage growth is calculated at each of the five drug concentrations levels using the seven absorbance measurements, namely absorbance at time zero (Tz), absorbance of control after incubation (C), and absorbance of test sample after incubation in the presence of drug at each of the five concentration levels (Ti). The Growth Percent is calculated as it was for the 1 dose assay: Growth Percent=[(Ti−Tz)/(C−Tz)]×100 for cell line/drug combinations for which Ti≧Tz. […]

S=c1c2ncccc2c(-c2ccccn2)nn1C1CCCCC1 [RL-4, 7-cyclohexyl-5-(pyridin-2-yl)pyrido[2,3-d]pyridazine-8(7H)-thione]
Growth Percent (SK-MEL-28 (Melanoma)): 93.53% | Growth Percent (SN12C (Renal Cancer)): 95.87% | Growth Percent (MALME-3M (Melanoma)): 98.97% | Growth Percent (TK-10 (Renal Cancer)): 120.12% | GI50 (MCF7 (Breast Cancer)): 353 nM
